# According to PMC7517944, “Design and Synthesis of Novel Nordihydroguaiaretic Acid (NDGA) Analogues as Potential FGFR1 Kinase Inhibitors With Anti-Gastric Activity and Chemosensitizing Effect” (Frontiers in Pharmacology, 2020):
# Columns and labels:
# FGFR1 kinase [1] = target: T1, FGFR1 kinase (Homo sapiens, UniProt P11362); assay: cell-free Caliper mobility shift kinase assay, inhibition at […]; type: biochemical
# FGFR1 kinase [2] = target: T1, FGFR1 kinase; assay: cell-free Caliper mobility shift kinase assay, […] inhibition at […]; also lowers p-FGFR1 in cells; type: biochemical
# T1 sequence (P11362 22-822): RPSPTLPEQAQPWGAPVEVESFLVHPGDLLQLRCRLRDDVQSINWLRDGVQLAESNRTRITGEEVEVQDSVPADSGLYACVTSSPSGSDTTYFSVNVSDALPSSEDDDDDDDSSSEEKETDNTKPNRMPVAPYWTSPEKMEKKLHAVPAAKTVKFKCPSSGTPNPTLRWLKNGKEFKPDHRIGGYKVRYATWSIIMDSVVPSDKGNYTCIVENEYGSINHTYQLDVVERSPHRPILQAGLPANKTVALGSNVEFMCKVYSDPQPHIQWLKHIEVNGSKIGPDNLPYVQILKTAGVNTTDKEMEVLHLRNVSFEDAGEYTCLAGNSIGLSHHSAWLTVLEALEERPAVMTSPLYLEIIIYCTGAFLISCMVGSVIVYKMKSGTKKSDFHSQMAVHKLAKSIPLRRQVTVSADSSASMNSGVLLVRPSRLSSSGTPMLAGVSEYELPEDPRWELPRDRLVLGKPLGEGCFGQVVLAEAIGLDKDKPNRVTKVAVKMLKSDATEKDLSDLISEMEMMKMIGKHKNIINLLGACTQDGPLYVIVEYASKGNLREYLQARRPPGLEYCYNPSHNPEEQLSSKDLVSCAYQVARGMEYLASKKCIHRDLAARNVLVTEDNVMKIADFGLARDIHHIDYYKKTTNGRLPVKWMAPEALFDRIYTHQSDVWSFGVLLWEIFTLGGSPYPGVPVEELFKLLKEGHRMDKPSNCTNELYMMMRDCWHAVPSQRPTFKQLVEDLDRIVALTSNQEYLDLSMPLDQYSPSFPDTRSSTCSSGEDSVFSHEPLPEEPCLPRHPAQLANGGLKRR
Structure (SMILES),inhibition at 20 µM (FGFR1 kinase [1]) [%],inhibition at 20 µM (FGFR1 kinase [2]) [%]
"COc1ccc(OC)c(/C=C2\COC/C(=C\c3ccc(O)c(O)c3)C2=O)c1 [Y15, (3E,5E)-3-(3,4-dihydroxybenzylidene)-5-(2,5-dimethoxybenzylidene)dihydro-2H-pyran-4(3H)-one]",67.6,–
"COc1ccc(/C=C2\COC/C(=C\c3ccc(O)c(O)c3)C2=O)cc1O [Y9, (3E,5E)-3-(3,4-dihydroxybenzylidene)-5-(3-hydroxy-4-methoxybenzylidene)dihydro-2H-pyran-4(3H)-one]",53.5,–
"O=C1/C(=C/c2ccc(O)cc2)COC/C1=C\c1ccc(O)c(O)c1 [Y5, (3E,5E)-3-(3,4-dihydroxybenzylidene)-5-(4-hydroxybenzylidene)dihydro-2H-pyran-4(3H)-one]",78.5,–
"COc1ccccc1/C=C1\COC/C(=C\c2ccc(O)c(O)c2)C1=O [Y11, (3E,5E)-3-(3,4-dihydroxybenzylidene)-5-(2-methoxybenzylidene)dihydro-2H-pyran-4(3H)-one]",54.2,–
"COc1cc(/C=C2\COC/C(=C\c3ccc(O)c(O)c3)C2=O)ccc1O [Y2, (3E,5E)-3-(3,4-dihydroxybenzylidene)-5-(4-hydroxy-3-methoxybenzylidene)dihydro-2H-pyran-4(3H)-one]",55.7,–
O=C1/C(=C/c2ccc(O)c(O)c2)COC/C1=C\c1ccc(O)c(O)c1 [Af23],92.8,–
"O=C1/C(=C/c2ccc(N3CCOCC3)cc2)COC/C1=C\c1ccc(O)c(O)c1 [Y13, (3E,5E)-3-(3,4-dihydroxybenzylidene)-5-(4-morpholinobenzylidene)dihydro-2H-pyran-4(3H)-one]",71.4,–
"COc1cccc(/C=C2\COC/C(=C\c3ccc(O)c(O)c3)C2=O)c1OC [Y14, (3E,5E)-3-(3,4-dihydroxybenzylidene)-5-(2,3-dimethoxybenzylidene)dihydro-2H-pyran-4(3H)-one]",–,92
"O=C1/C(=C/c2cccc(O)c2)COC/C1=C\c1ccc(O)c(O)c1 [Y7, (3E,5E)-3-(3,4-dihydroxybenzylidene)-5-(3-hydroxybenzylidene)dihydro-2H-pyran-4(3H)-one]",73.7,–
